Results published in ChEMBL document CHEMBL1157381, “Alkaloids from the Australian rainforest tree Ochrosia moorei” (J Nat Prod, 2008).
pIC50: −log10 of the molar value. Active and inactive are the calls of the source. The calls are words filed in the database; no cut-off is given here.

Legend:
Type in all cases: cell-based
[1] = target: T1, Glucocorticoid receptor (Homo sapiens) (UniProt P04150); experiment: Inhibition of glucocorticoid receptor-glucocorticoid complex transfected in rat R1 cells assessed as down-regulation of TPA-responsive element proinflammatory gene expression at 100 uM after 24 hrs by beta-galactosidase assay; set-up: scale not given: the % may be the effect or the level left
T1 sequence (whole entry): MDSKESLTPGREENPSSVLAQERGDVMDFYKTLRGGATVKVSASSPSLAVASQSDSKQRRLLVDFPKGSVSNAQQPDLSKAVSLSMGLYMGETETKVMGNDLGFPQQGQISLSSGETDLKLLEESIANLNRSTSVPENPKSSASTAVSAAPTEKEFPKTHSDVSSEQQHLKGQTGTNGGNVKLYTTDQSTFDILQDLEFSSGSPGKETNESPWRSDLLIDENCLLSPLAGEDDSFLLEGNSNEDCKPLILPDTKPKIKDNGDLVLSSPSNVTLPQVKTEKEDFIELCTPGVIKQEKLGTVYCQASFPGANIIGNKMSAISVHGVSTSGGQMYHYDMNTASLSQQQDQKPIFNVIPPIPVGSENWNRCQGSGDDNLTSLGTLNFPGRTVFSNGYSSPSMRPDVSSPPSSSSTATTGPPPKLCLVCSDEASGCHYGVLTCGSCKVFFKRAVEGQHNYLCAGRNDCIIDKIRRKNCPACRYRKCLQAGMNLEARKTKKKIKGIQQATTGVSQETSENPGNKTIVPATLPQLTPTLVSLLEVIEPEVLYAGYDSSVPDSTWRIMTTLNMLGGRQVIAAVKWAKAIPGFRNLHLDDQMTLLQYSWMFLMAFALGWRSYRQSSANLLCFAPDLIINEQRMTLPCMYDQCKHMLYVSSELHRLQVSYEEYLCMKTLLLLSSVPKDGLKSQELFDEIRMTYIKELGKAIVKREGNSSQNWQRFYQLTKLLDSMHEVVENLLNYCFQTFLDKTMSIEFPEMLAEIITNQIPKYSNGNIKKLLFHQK

R1 = experiment: Cytotoxicity against rat R1 cells at 100 uM after 24 hrs by neutral red assay; settings: r1, 24 h
Glucocorticoid receptor = target: T2, Glucocorticoid receptor (Homo sapiens, UniProt P04150); experiment: Inhibition of glucocorticoid receptor-glucocorticoid complex transfected in rat R1 cells assessed as down-regulation of TPA-responsive element proinflammatory gene expression after 24 hrs by beta-galactosidase assay
T2 sequence (P04150 whole entry): T1 sequence (whole entry)

[2] = target: T1, Glucocorticoid receptor (Homo sapiens); experiment: Inhibition of glucocorticoid receptor-glucocorticoid complex transfected in rat R1 cells assessed as down-regulation of TPA-responsive element proinflammatory gene expression at 10 uM after 24 hrs by beta-galactosidase assay

Compound	Activity [1]	Activity (R1)	pIC50 (Glucocorticoid receptor)	Activity [2]
C=C1c2[nH]c3ccccc3c2CN2CC[C@H]1/C(=C\C)C2	54%			
COc1ccc2[nH]c3c(C)c4ccncc4c(C)c3c2c1		Non-toxic	4.05	
C=C[C@H]1[C@H](O[C@H]2O[C@H](CO)[C@@H](O)[C@H](O)[C@H]2O)OC=C(C(=O)OC)[C@H]1Cc1nc(C(=O)O)cc2c1[nH]c1ccccc12	30%			
Cc1c2ccncc2c(C)c2c1[nH]c1ccccc12 [ELLIPTECINE]		Non-toxic	4.05	
CC(=O)C1=CN2CC[C@]34c5ccccc5N(C)[C@H]3C[C@H]1C[C@H]24				inactive
CN1c2ccccc2[C@]23CCN4C=C(C(=O)CO)[C@H](C[C@H]42)C[C@H]13				inactive
